Source: article PMC9032693, “Biological Evaluation of New Thienopyridinium and Thienopyrimidinium Derivatives as Human Choline Kinase Inhibitors” (Pharmaceutics, 2022)
Like-named read-outs stand apart in the source and are kept apart here.

Assays:
[1] = Solubility as observed in the enzyme inhibition assays; assay type: physicochemical; set-up: key to solubility (footnote b): -: The compound was not soluble
MDA-MB-231 = assay: Antiproliferative activity, resazurin assay, 72 h; assay type: cell-based, human
Procedure: (§1) Human cervix carcinoma (HeLa), Non-small lung adenocarcinoma (A549), Colon adenocarcinoma (HT29), and human triple negative breast cancer (MDA-MB-231) were cultured in Dulbecco’s modified Eagle’s media (DMEM). B-acute lymphoblastic leukemia (RS4;11 and SEM), T-acute lymphoblastic leukemia (Jurkat), and human promyelocytic cells (HL-60), were cultured in RPMI-1640 medium. Both media were purchased from Gibco, Life Technologies (Milan, Italy) and supplemented with 10% Fetal Bovine Serum (FBS, Invitrogen, Milan, Italy,). Every six months, each cell line was checked for the presence of mycoplasma by RT-PCR.
(§2) Stock solutions (10 mM) of the different compounds were made in DMSO. Cancer cells were seeded in tissue-treated, flat bottom, 384-well plates (Corning) according to their optimal density, (A549 1000 cells/wells; MDA-MB-231, HeLa and HT-29 2000 cells/well and finally Jurkat, HL-60 SEM and RS4;11 20.000 cells/well) in 27 µL of complete medium per well.
(§3) The day after cell seeding and immediately before cell treatment, 10 mM stock solutions of the compounds were pre-diluted to a […] concentration in 250 µL of Hank’s in a 96-well plate (Corning). Subsequent 1:5 dilutions were carried out using a microlab STAR 96-CORE liquid handling system (Hamilton), a robotized liquid handling tool that was employed for all steps, from cell seeding to drug dilution and cell treatment to ensure high reproducibility while reducing time for large screening execution. This pre-dilution step was necessary to avoid DMSO-related cytotoxicity and compound precipitation in the cell culture medium. In every case, DMSO concentration never exceeded 0.1%.
(§4) Positive (Bortezomib 1 µM) and negative (0.1% DMSO) controls were included in all the screened plates to allow for monitoring the Z’ factor throughout the entire screening. Cells were treated with 3 µL of the previously made dilutions; thus, generating a 6-point 5-fold dose–response curve starting from 10 µM. Within a plate, each drug concentration was tested in duplicate in two independent experiments for each compound.
(§5) Treated cells were then placed inside the CO2 incubator for 72 h at 37 °C. Cell viability was assessed by resazurin assay, in which 3 µL of resazurin per well were added using the previously described automated platform. Plates were placed in the incubator at 37 °C for 2 h, and then the fluorescence of each plate was read using a Spark 10 M multimode microplate reader (Tecan Group Ltd., Mannedorf, Switzerland) with 535 nm excitation wavelength and 600 nm emission wavelength.

RS 4;11 = assay: Antiproliferative activity, resazurin assay, 72 h; assay type: cell-based, human
Procedure: as §1, §2, §3, §4, §5

Jurkat = assay: Antiproliferative activity, resazurin assay, 72 h; assay type: cell-based, human
Procedure: as §1, §2, §3, §4, §5

HT29 = assay: Antiproliferative activity, resazurin assay, 72 h; assay type: cell-based, human
Procedure: as §1, §2, §3, §4, §5

SEM cells = assay: Antiproliferative activity, resazurin assay, 72 h; assay type: cell-based, human
Procedure: as §1, §2, §3, §4, §5

HL-60 = assay: Antiproliferative activity, resazurin assay, 72 h; assay type: cell-based, human
Procedure: as §1, §2, §3, §4, §5

HeLa = assay: Antiproliferative activity, resazurin assay, 72 h; assay type: cell-based, human
Procedure: as §1, §2, §3, §4, §5

A549 = assay: Antiproliferative activity, resazurin assay, 72 h; assay type: cell-based, human
Procedure: as §1, §2, §3, §4, §5

CKα1 = molecular target: T1, CKα1 (Homo sapiens, UniProt P35790); assay: Choline kinase assay ([methyl-14C]choline into PCho, purified enzyme); assay type: biochemical; details: for % Inhibition at 10 µM: purified CKα1, inhibitor 10 µM; for % Inhibition at 10 µM / % Inhibition at 30 µM: end-point assay; for % Inhibition at 30 µM: purified CKα1, inhibitor 30 µM; for IC50: concentration required to inhibit CKα1 enzyme by 50%
T1 construct: an N-terminally His-tagged truncated form of CKα1 (Δ75–457) was cloned into a pET-28a vector; His tag (N); made in house; host or cells: E. coli BL21 (DE3) Star
Procedure: The protein was produced and purified as previously described. Briefly, an N-terminally His-tagged truncated form of CKα1 (Δ75–457) was cloned into a pET-28a vector and expressed at 37 °C in E. coli BL21 (DE3) Star cells using 1 mM isopropyl β-D-1-thiogalactopyranoside (IPTG). After centrifugation, the cellular pellet was resuspended in 50 mM Tris-HCl pH 7.5, 500 mM NaCl, 0.2 mM phenylmethylsulphonyl fluoride (PMSF), DNase, and 0.5 mM β-mercaptoethanol, sonicated and subjected to a two-step purification procedure to isolate the target enzyme. […] Protein elution was completed using buffer A + 400 mM imidazole. A second size-exclusion chromatography step was then carried out to achieve complete purity. To this end, we used a HiPrep 26/60 Sephacryl 100 HR column (GE Healthcare, Little Chalfont, Buckinghamshire, UK) and a 20 mM Tris/HCl pH 7.5, 150 mM NaCl running buffer.
To study the effect of the compounds on CKα, an in vitro enzymatic assay was performed using the purified enzyme as previously reported in [19, 28, 29]. Briefly, the incorporation of ^14C from [methyl-^14C]choline into PCho in either the absence (control) or presence of different inhibitors at varying concentrations was used to determine the CK activity. The reaction mixture included 20 ng of purified CKα1, 10 mM ATP, 10 mM MgCl2, 100 mM Tris-HCl pH 8.5, and increasing concentrations of compounds. The mixture was preincubated at 37 °C for 5 min. Then, [methyl-^14C]choline chloride (1 mM, 4500 dpm/nmol) was added and the reaction was left to proceed for 10 min at 37 °C. The assay was stopped by immersing the reaction tubes in boiling water. PCho was separated by Thin Layer Chromatography using methanol/0.6% NaCl/28% NH4OH in water (50:50:5, v/v/v) as solvent. The radioactivity associated into PCho was determined in a Beckman 6000-TA (Madrid, Spain) liquid scintillation counter. The 50% inhibitory concentrations (IC50 values) were determined from the % enzyme activity at different concentrations of synthetic inhibitors relative to the control by using a sigmoidal dose–response curve (ED50plus v1.0 software).

T1 sequence (P35790 75-457): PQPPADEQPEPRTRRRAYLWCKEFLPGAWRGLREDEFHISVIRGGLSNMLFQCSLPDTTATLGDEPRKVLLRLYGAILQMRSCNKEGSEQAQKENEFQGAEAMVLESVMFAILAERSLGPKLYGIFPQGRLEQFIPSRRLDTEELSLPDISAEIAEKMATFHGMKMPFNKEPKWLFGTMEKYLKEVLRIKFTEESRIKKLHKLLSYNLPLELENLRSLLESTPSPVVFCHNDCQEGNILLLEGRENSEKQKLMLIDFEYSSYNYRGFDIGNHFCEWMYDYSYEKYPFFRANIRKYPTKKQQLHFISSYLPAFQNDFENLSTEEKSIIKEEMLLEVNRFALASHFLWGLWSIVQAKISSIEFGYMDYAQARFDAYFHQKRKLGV

| SMILES | GI50 (MDA-MB-231) [nM] | GI50 (Jurkat) [nM] | GI50 (HT29) [nM] | GI50 (HL-60) [nM] | GI50 (HeLa) [nM] | GI50 (A549) [nM] | % Inhibition at 10 µM (CKα1) [%] | % Inhibition at 30 µM (CKα1) [%] | IC50 (CKα1) [nM] | GI50 (RS 4;11) [nM] | GI50 (SEM cells) [nM] | other results |
| --- | --- | --- | --- | --- | --- | --- | --- | --- | --- | --- | --- | --- |
| CN(c1ccccc1)c1nc[n+](Cc2ccc(-c3ccc(C[n+]4cnc(N(C)c5ccccc5)c5sccc54)cc3)cc2)c2ccsc12 [Fp-1] | 900 ± 20 | > 10000 | 1430 ± 30 | 510 ± 50 | 1660 ± 10 | 210 ± 20 | – | – | 1060 ± 220 | 2120 ± 200 | 4550 ± 500 | – |
| [Br-].[Br-].c1cc2c(N3CCCC3)nc[n+](Cc3ccc(-c4ccc(C[n+]5cnc(N6CCCC6)c6ccsc65)cc4)cc3)c2s1 [Fg-14] | 940 ± 90 | > 10000 | 4160 ± 1000 | 1350 ± 100 | 2530 ± 800 | 280 ± 20 | 80.28 | 94.14 | 4870 ± 570 | > 10000 | > 10000 | – |
| [Br-].[Br-].c1cc2c(s1)c(N1CCCC1)cc[n+]2Cc1ccc(-c2ccc(C[n+]3ccc(N4CCCC4)c4sccc43)cc2)cc1 [Fg-9] | 2020 ± 200 | > 10000 | > 10000 | 9120 ± 1100 | > 10000 | 250 ± 20 | 75.81 | 94.95 | ≥ 5000 | > 10000 | > 10000 | – |
| [Br-].[Br-].c1cc2c(s1)c(N1CCCCC1)nc[n+]2Cc1ccc(-c2ccc(C[n+]3cnc(N4CCCCC4)c4sccc43)cc2)cc1 [Fa-24] | 700 ± 70 | > 10000 | > 10000 | 7280 ± 1100 | 7080 ± 1300 | 1170 ± 200 | 84.64 | 98.40 | 2330 ± 210 | > 10000 | > 10000 | – |
| [Br-].[Br-].c1cc2c(N3CCCC3)nc[n+](Cc3ccc(CCc4ccc(C[n+]5cnc(N6CCCC6)c6ccsc65)cc4)cc3)c2s1 [Fg-15] | 260 ± 20 | > 10000 | 2010 ± 30 | 130 ± 10 | 1000 ± 100 | 220 ± 30 | 71.11 | 81.29 | ≥ 5000 | 3710 ± 40 | > 10000 | – |
| [Br-].[Br-].c1cc2c(N3CCCC3)nc[n+](Cc3ccc(CCCCc4ccc(C[n+]5cnc(N6CCCC6)c6ccsc65)cc4)cc3)c2s1 [Ff-3] | 360 ± 30 | 7540 ± 1500 | 1330 ± 10 | 210 ± 30 | 630 ± 20 | 210 ± 20 | 74.17 | 80.09 | ≥ 5000 | 2050 ± 100 | 3700 ± 400 | – |

More lines, main results first:

| GI50 (MDA-MB-231) [nM] | GI50 (Jurkat) [nM] | GI50 (HT29) [nM] | GI50 (HL-60) [nM] | GI50 (HeLa) [nM] | GI50 (A549) [nM] | % Inhibition at 10 µM (CKα1) [%] | % Inhibition at 30 µM (CKα1) [%] | IC50 (CKα1) [nM] | SMILES | GI50 (RS 4;11) [nM] | GI50 (SEM cells) [nM] | other results |
| --- | --- | --- | --- | --- | --- | --- | --- | --- | --- | --- | --- | --- |
| 330 ± 20 | 5480 ± 500 | 1470 ± 60 | 140 ± 10 | 620 ± 20 | 280 ± 20 | – | – | – | [Br-].[Br-].c1cc2c(s1)c(N1CCCCC1)nc[n+]2Cc1ccc(CCc2ccc(C[n+]3cnc(N4CCCCC4)c4sccc43)cc2)cc1 [Fa-25] | 1840 ± 100 | 2530 ± 30 | solubility (footnote b) ([1]; CK inhibition assay at 10 and 30 µM): - ^b; solubility (in words) ([1]; IC50 could not be determined): insolubility |
| 1430 ± 200 | > 10000 | > 10000 | 2140 ± 100 | 3260 ± 400 | 1060 ± 100 | 77.41 | 82.77 | – | [Br-].[Br-].c1cc2c(s1)c(N1CCCC1)cc[n+]2Cc1ccc(OCCOc2ccc(C[n+]3ccc(N4CCCC4)c4sccc43)cc2)cc1 [Ff-2] | > 10000 | > 10000 | – |
| 470 ± 40 | 8610 ± 1300 | 1480 ± 40 | 400 ± 50 | 870 ± 50 | 210 ± 30 | 89.95 | 95.88 | 8570 ± 2800 | [Br-].[Br-].c1cc2c(s1)c(N1CCCC1)nc[n+]2Cc1ccc(CCCCc2ccc(C[n+]3cnc(N4CCCC4)c4sccc43)cc2)cc1 [Ff-7] | 2330 ± 300 | 2930 ± 200 | – |
| 190 ± 10 | > 10000 | > 10000 | 350 ± 10 | 590 ± 20 | 290 ± 20 | 87.69 | 92.19 | 3250 ± 540 | [Br-].[Br-].c1cc2c(s1)c(N1CCCCC1)nc[n+]2Cc1ccc(OCCOc2ccc(C[n+]3cnc(N4CCCCC4)c4sccc43)cc2)cc1 [Fa-28] | 2320 ± 30 | 2410 ± 40 | – |
| 380 ± 10 | > 10000 | 2640 ± 60 | 210 ± 30 | 670 ± 20 | 250 ± 20 | 80.28 | 85.87 | 1810 ± 170 | [Br-].[Br-].c1cc2c(s1)c(N1CCCC1)nc[n+]2Cc1ccc(CCc2ccc(C[n+]3cnc(N4CCCC4)c4sccc43)cc2)cc1 [Fg-16] | 7270 ± 800 | > 10000 | – |
| 720 ± 30 | > 10000 | > 10000 | 790 ± 50 | > 10000 | 230 ± 30 | 55.23 | 77.28 | ≥ 10000 | [Br-].[Br-].c1cc2c(N3CCCC3)nc[n+](Cc3ccc(OCCOc4ccc(C[n+]5cnc(N6CCCC6)c6ccsc65)cc4)cc3)c2s1 [Ff-4] | > 10000 | > 10000 | – |
| 1230 ± 10 | 4130 ± 400 | 3320 ± 30 | 790 ± 50 | 1900 ± 10 | 970 ± 20 | 82.15 | 90.83 | 1540 ± 170 | [Br-].[Br-].c1cc2c(s1)c(N1CCCC1)cc[n+]2Cc1ccc(CCCCc2ccc(C[n+]3ccc(N4CCCC4)c4sccc43)cc2)cc1 [Ff-1] | 7900 ± 1300 | 3070 ± 300 | – |
| – | – | – | – | – | – | – | – | 1080 ± 70 | c1cc2c(s1)c(N1CCCCCC1)nc[n+]2Cc1ccc(CCCCc2ccc(C[n+]3cnc(N4CCCCCC4)c4sccc43)cc2)cc1 [Fa-29] | – | – | inhibition at 5 µM (CKα1; purified CKα1, inhibitor 5 µM, read-out: percentage inhibition at 5 µM): 85%; GI50 (MDA-MB-231; Homo sapiens, MDA-MB-231): 500 ± 20 nM; GI50 (RS 4;11; Homo sapiens, RS4-11): 1600 ± 100 nM; GI50 (Jurkat; Homo sapiens, Jurkat): 5230 ± 800 nM; GI50 (HT29; Homo sapiens, HT-29): 1090 ± 200 nM; GI50 (SEM cells; Homo sapiens): 1770 ± 200 nM; GI50 (HL-60; Homo sapiens, HL-60): 550 ± 20 nM; GI50 (HeLa; Homo sapiens, HeLa): 840 ± 40 nM; GI50 (A549; Homo sapiens, A549): 140 ± 20 nM |
